Assay type in all cases: cell-based
In experiment [1] the test system is parasitic forms of Trypanosoma cruzi. Description: Total ROS production (H2DCFDA labeling). Conditions: H2O2 20.0 μM. The protocol: FIGS. 2A, 2B, and 2C show the effects of VC and VK3 on the total reactive oxygen species (ROS) production in parasitic forms of Trypanosoma cruzi, where the parasites were treated with VC and VK3, alone and combined, for 24 hrs using H2DCFDA labeling; and where epimastigote forms (FIG. 2A) were treated with 0.61 mM VC and 1.90 μM VK3, alone and combined; trypomastigote forms (FIG. 2B) were treated with 0.20 mM VC and 0.35 μM VK3, alone and combined; and amastigote forms (FIG. 2C) were treated with 0.18 mM VC and 0.30 μM VK3, alone and combined. H2O2 was used as a positive control. Total ROS were measured as an increase in fluorescence that is caused by the conversion of nonfluorescent dye to fluorescent DCF. The results are expressed as the mean fluorescence (in arbitrary units [A.U.]±SE) of at least three independent experiments. The symbol * indicates significant differences compared with the control group (untreated cells; p≤0.05). The production of total reactive oxygen species (total ROS) was evaluated in parasitic forms after exposure to VC and VK3 using the probe H2DCFDA. Epimastigote forms (1×10^6 parasites/mL) were evaluated after exposure to 0.61 mM VC and 1.90 μM VK3, alone and in combination, for 24 hrs at 28° C. Trypomastigote forms (1×10^7 parasites/mL) were evaluated after exposure to 0.20 mM VC and 0.35 μM VK3, alone and in combination, for 24 hrs at 37° C. in a 5% CO2 atmosphere. Amastigote forms (1×10^7 parasites/mL) were evaluated after exposure to 0.18 mM VC and 0.30 μM VK3, alone and in combination, for 24 hrs at 37° C. in a 5% CO2 atmosphere. Hydrogen peroxide (H2O2; 20.0 μM) was used as a positive control. Afterward, the parasites were centrifuged, washed, and resuspended in PBS. Parasites were loaded with 10.0 μM of the permeant probe H2DCFDA in the dark for 45 min.

The subject of experiment [2] is Trypomastigote forms of T. cruzi (Y strain). The experiment can be described thus: Trypanocidal effect on trypomastigote forms (viability by mobility, Pizzi-Brener method, Combination Index method). Conditions: Trypanosoma cruzi. The protocol: All of the experiments were performed using the Y strain of T. cruzi. Pereira et al., Folia Clin. Biol. 1953, 20, 191-208. Epimastigote forms were axenically maintained at 28° C. with weekly transfers in liver infusion tryptose (LIT) medium supplemented with 10% heat-inactivated FBS, pH 7.4. Camargo, Rev. Inst. Med. Trop. São Paulo. 1964, 6, 93-100. Trypomastigote and amastigote forms were obtained from the previously infected monolayers of LLCMK2 cells (epithelial cells of monkey kidney [Macaca mulatta]; CCL-7; American Type Culture Collection, Rockville, MD, USA) in DMEM supplemented with 2 mM L-glutamine and 10% FBS, buffered with sodium bicarbonate in a 5% CO2 air mixture at 37° C. […] After incubation, the viability of the parasites was determined by examining mobility under a light microscope (Olympus CX31) using the Pizzi-Brener method. […] The data were calculated and mathematically expressed as a Combination Index: CI=(IC50 VK3 combined/IC50 VK3 alone)+(IC50 VC combined/IC50 VC alone) for epimastigotes and amastigotes and CI=(EC50 VK3 combined/EC50 VK3 alone)+(EC50 VC combined/EC50 VC alone) for trypomastigotes. […] The data were also graphically expressed as isobolograms by plotting concentrations of vitamins that alone or in combination induced activity against 50% of the forms of the parasite.

For experiment [3], the system named is intracellular amastigote forms of T. cruzi (Y strain) in LLCMK2 cells. Description: Activity against intracellular amastigote forms in LLCMK2 cells (survival index, Combination Index method). The following applies: Trypanosoma cruzi. The protocol: All of the experiments were performed using the Y strain of T. cruzi. Pereira et al., Folia Clin. Biol. 1953, 20, 191-208. Epimastigote forms were axenically maintained at 28° C. with weekly transfers in liver infusion tryptose (LIT) medium supplemented with 10% heat-inactivated FBS, pH 7.4. Camargo, Rev. Inst. Med. Trop. São Paulo. 1964, 6, 93-100. Trypomastigote and amastigote forms were obtained from the previously infected monolayers of LLCMK2 cells (epithelial cells of monkey kidney [Macaca mulatta]; CCL-7; American Type Culture Collection, Rockville, MD, USA) in DMEM supplemented with 2 mM L-glutamine and 10% FBS, buffered with sodium bicarbonate in a 5% CO2 air mixture at 37° C. […] The number of infected cells and amastigotes was determined by randomly counting 200 cells. The results were calculated as the survival index, which was obtained by multiplying the percentage of infected cells by the number of amastigotes per infected LLCMK2 cell and then determining the percentage of inhibition. […] The data were calculated and mathematically expressed as a Combination Index: CI=(IC50 VK3 combined/IC50 VK3 alone)+(IC50 VC combined/IC50 VC alone) for epimastigotes and amastigotes and CI=(EC50 VK3 combined/EC50 VK3 alone)+(EC50 VC combined/EC50 VC alone) for trypomastigotes. […]

Experiment [4] relates to Epimastigote forms of T. cruzi (Y strain). The experiment can be described thus: Trypanocidal effect on epimastigote forms (counting in Neubauer hemocytometer, Combination Index method). Conditions: Trypanosoma cruzi. As for the experimental part: All of the experiments were performed using the Y strain of T. cruzi. Pereira et al., Folia Clin. Biol. 1953, 20, 191-208. Epimastigote forms were axenically maintained at 28° C. with weekly transfers in liver infusion tryptose (LIT) medium supplemented with 10% heat-inactivated FBS, pH 7.4. Camargo, Rev. Inst. Med. Trop. São Paulo. 1964, 6, 93-100. Trypomastigote and amastigote forms were obtained from the previously infected monolayers of LLCMK2 cells (epithelial cells of monkey kidney [Macaca mulatta]; CCL-7; American Type Culture Collection, Rockville, MD, USA) in DMEM supplemented with 2 mM L-glutamine and 10% FBS, buffered with sodium bicarbonate in a 5% CO2 air mixture at 37° C. […] The number of epimastigote forms was determined by counting in a Neubauer hemocytometer after 96 hrs. The data were calculated and mathematically expressed as a Combination Index: CI=(IC50 VK3 combined/IC50 VK3 alone)+(IC50 VC combined/IC50 VC alone) for epimastigotes and amastigotes and CI=(EC50 VK3 combined/EC50 VK3 alone)+(EC50 VC combined/EC50 VC alone) for trypomastigotes. […] The data were also graphically expressed as isobolograms by plotting concentrations of vitamins that alone or in combination induced activity against 50% of the forms of the parasite.

This is an account of results in patent publication US11998523B2, “Ascorbic acid and quinone compounds for treating Chagas disease” (IC-MedTech Corp., priority 2016, dated 2024).

pEC50, pIC50: −log10 of the molar value. Like-named read-outs stand apart in the source and are kept apart here.

For the molecule `OO` [H2O2, Hydrogen peroxide], the “increase in ROS production (positive control)” value in experiment [1] (amastigotes) was 60%; in experiment [1] (epimastigotes) it was 69%; in experiment [1] (trypomastigotes), 77%.

Take `O=C1O[C@H]([C@@H](O)CO)C(O)=C1O` [VC, L-ascorbic acid]: the pEC50 in experiment [2] (combined with 0.35 μM VK3, read-out: VC concentration in the combination with synergistic effect on 50% of the parasites (EC50 VC combined)) is 3.70. Also, the pIC50 in experiment [3] (LLC-MK2, combined with 0.30 μM VK3, read-out: VC concentration in the combination with synergistic effect on 50% of the parasites (IC50 VC combined)) is 3.74; in experiment [4] (combined with 1.90 μM VK3, read-out: VC concentration in the combination with synergistic effect on 50% of the parasites (IC50 VC combined)), 3.21.

As for `CC1=CC(=O)c2ccccc2C1=O` [VK3, 2-methyl-1,4-naphthalenedione], the pEC50 in experiment [2] (combined with 0.20 mM VC, read-out: VK3 concentration in the combination with synergistic effect on 50% of the parasites (EC50 VK3 combined)) is 6.46. Also, the pIC50 in experiment [3] (LLC-MK2, combined with 0.18 mM VC, read-out: VK3 concentration in the combination with synergistic effect on 50% of the parasites (IC50 VK3 combined)) is 6.52; in experiment [4] (.61 mM VC, read-out: VK3 concentration in the combination with synergistic effect on 50% of the parasites (IC50 VK3 combined)), 5.72.
